Here are results for 57 compounds from PubChem BioAssay AID1259246 (Broad Institute, 2017).

“And” between values parts separate entries of the source, which are not always exact repeats. Equal values may be shown once. Inconclusive results are not listed. The source made the active and inactive calls.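 How the source made its calls: active means valid dose-response fit whose half-maximal growth-inhibiting concentration is at or below a set limit above the top tested dose; inconclusive means flat fit with effect between 30 and 70%, or poor fit; inactive means half-maximal concentration above a set limit.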

For the first assay, the system named is Clostridioides difficile clinical isolate growth, OD600, 24 h. Nature of the assay: antibacterial activity against Clostridioides difficile – 10-point retest, dose response (AID 1259246).
Conditions: not given
On to `CO[C@H](CN(C)S(=O)(=O)c1cn(C)cn1)[C@@H](C)CN(C(=O)Nc1ccc(C(F)(F)F)cc1)[C@H](C)CO`, for which the concentration for half-maximal inhibition (IC50) (commonly the midpoint of a concentration-inhibition curve) is 12.6 µM.
Same read-out and setting: as for `C[C@@H]1CN([C@@H](C)CO)C(=O)c2ccccc2-c2ccccc2CO[C@H]1CN(C)Cc1ccccc1C(F)(F)F`, the figure is 19.5 µM; as for `C[C@@H]1CN([C@H](C)CO)C(=O)Cc2cc(NC(=O)CCCN(C)C)ccc2O[C@H]1CN(C)Cc1ccc(-c2ccccc2)cc1`, 74.7 µM and 48 µM.
Regarding `C[C@@H]1CN([C@@H](C)CO)C(=O)c2cccc(NC(=O)Nc3ccc(C(F)(F)F)cc3)c2O[C@@H]1CN(C)Cc1ccccc1`, the IC50 was 2.69 µM.
In the case of `C[C@@H]1CN([C@@H](C)CO)S(=O)(=O)c2ccc(C#CCC3CCCC3)cc2O[C@H]1CN(C)Cc1ccc(C(=O)O)cc1`, the IC50 is 32.4 µM.
Turning to `C[C@@H]1CN([C@@H](C)CO)C(=O)c2cccc(NS(=O)(=O)c3ccccc3)c2O[C@@H]1CN(C)Cc1ccc(-c2ccccc2)cc1`, the IC50 is 62.5 µM.
For the compound `CO[C@H](CN(C)C(=O)C1CCOCC1)[C@H](C)CN(C(=O)Nc1ccc(C(F)(F)F)cc1)[C@H](C)CO`, the concentration for half-maximal inhibition (IC50) is 26.2 µM.
As to `C[C@@H]1CN([C@@H](C)CO)S(=O)(=O)c2ccc(/C=C/c3ccccc3)cc2O[C@H]1CN(C)Cc1ccc(C(=O)O)cc1`, the IC50 was 3.3 µM.
In the case of `C[C@H](CO)N1C[C@H](C)[C@@H](CN(C)Cc2ccc(-c3ccccc3)cc2)Oc2ccc(NC(=O)CCCN(C)C)cc2CC1=O`, the IC50 is 68.7 µM.
For `CO[C@H]1CN(C)C(=O)c2cc(NC(=O)Nc3cc(Cl)cc(Cl)c3)ccc2OC[C@@H](C)NC[C@@H]1C`, the IC50 was 33.9 µM and 6.17 µM.
Take `C[C@@H]1CN([C@@H](C)CO)S(=O)(=O)c2ccc(/C=C/c3ccccc3)cc2O[C@@H]1CN(C)Cc1ccc(C(=O)O)cc1`: the IC50 was > 240 µM (inactive).
On the same count and under the same terms, under `COc1ccc(CN(C)C[C@H]2OCCCC[C@H](C)Oc3ccc(NC(=O)Nc4ccc(C(F)(F)F)cc4)cc3C(=O)N([C@@H](C)CO)C[C@@H]2C)cc1` stands 67.7 µM; under `Cc1ccc(-c2ccc3c(c2)O[C@@H](CN(C)Cc2ccc(C(=O)O)cc2)[C@H](C)CN([C@@H](C)CO)S3(=O)=O)cc1`, 110 µM.
Consider `COc1ccc(C#Cc2cnc3c(c2)C(=O)N([C@@H](C)CO)C[C@@H](C)[C@H](CN(C)CC2CCCC2)O3)cc1`, for which the IC50 was 188 µM.
With `CO[C@H]1CN(C)C(=O)c2ccc(NC(=O)c3nc4ccccc4s3)cc2OC[C@@H](C)N(Cc2ccncc2)C[C@@H]1C`, the IC50 is > 240 µM (inactive).
In the case of `C[C@H]1CN([C@@H](C)CO)C(=O)Cc2cc(NC(=O)Nc3ccc(C(F)(F)F)cc3)ccc2O[C@H]1CN(C)Cc1ccncc1`, the half-maximal inhibitory concentration (IC50) was 7.49 µM.
For `COc1ccc(NC(=O)Nc2cccc3c2O[C@H](CN(C)Cc2ccc(-c4ccccc4)cc2)[C@H](C)CN([C@@H](C)CO)C3=O)cc1`, the IC50 was 101 µM.
`O=C(NCC[C@H]1CC[C@H](NS(=O)(=O)c2ccc(F)cc2)[C@@H](CO)O1)Nc1ccc(Cl)cc1`: the IC50 is 26.6 µM.
Regarding `CNC[C@@H]1Oc2cc(C#CCC3CCCC3)ccc2S(=O)(=O)N([C@H](C)CO)C[C@H]1C`, the IC50 was 68.6 µM.
Consider `CCS(=O)(=O)N1[C@H](CO)[C@H](c2ccc(C#CCC3CCCC3)cc2)[C@@H]1C#N`, for which the IC50 is 80.2 µM.
In the case of `COc1ccc(S(=O)(=O)Nc2cccc3c2O[C@H](CN(C)Cc2ccc(Oc4ccccc4)cc2)[C@H](C)CN([C@@H](C)CO)C3=O)cc1`, the 50% inhibitory concentration (IC50) is 9.4 µM.
In the case of `CNC[C@H]1Oc2cc(C#CC3CCCCC3)ccc2S(=O)(=O)N([C@H](C)CO)C[C@@H]1C`, the IC50 was 63.8 µM.
Same read-out and setting: as for `CN(C)CC(=O)N1[C@H](C#N)[C@H](c2ccc(C#CC3CCCCC3)cc2)[C@@H]1CO`, the figure is 65.2 µM; as for `COc1ccc(CN(C)C[C@@H]2OCCCC[C@H](C)Oc3ccc(NC(=O)Nc4cccc5ccccc45)cc3C(=O)N([C@H](C)CO)C[C@H]2C)cc1`, 87.9 µM; as for `CO[C@H]1CN(C)C(=O)c2cc(NC(=O)Nc3cc(Cl)cc(Cl)c3)ccc2OC[C@@H](C)NC[C@H]1C`, 31.2 µM and 25.9 µM.
As to `C[C@H](CO)N1C[C@H](C)[C@@H](CN(C)Cc2ccc(C(=O)O)cc2)Oc2cc(/C=C/c3ccccc3)ccc2S1(=O)=O`, the IC50 is > 120 µM (inactive).
For the compound `C[C@@H]1CN([C@@H](C)CO)C(=O)c2cccc(NC(=O)Nc3ccc4c(c3)OCO4)c2O[C@@H]1CN(C)Cc1ccc(-c2ccccc2)cc1`, the half-inhibitory concentration (IC50) was 3.03 µM.
`C[C@@H]1CCCCO[C@@H](CN(C)CC2CCCCC2)[C@@H](C)CN([C@@H](C)CO)C(=O)c2cc(NC(=O)Nc3ccc(C(F)(F)F)cc3)ccc2O1`: the IC50 was 50.2 µM and 17.8 µM.

System in the next assay: not listed separately
The assay is described as above. The following applies: Clostridioides difficile clinical isolate growth, OD600, 24 h; at 60 µM (top of the series).
With `O=C(C[C@@H]1C[C@H]2c3cc(NC(=O)Nc4ccc(F)cc4)ccc3O[C@H]2[C@H](CO)O1)NC1CCCCC1`, the activity change, negative = inhibition is 6.83% (inactive).
For `C[C@H](CO)N1C[C@H](C)[C@@H](CN(C)S(=O)(=O)c2ccc(Cl)cc2)Oc2c(NC(=O)Nc3ccc(C(F)(F)F)cc3)cccc2C1=O`, the activity change, negative = inhibition was 25% (inactive).
Take `C[C@H]1CN([C@@H](C)CO)S(=O)(=O)c2ccc(C#CC3CCCC3)cc2O[C@@H]1CN(C)Cc1cccnc1`: the activity change, negative = inhibition is 7.15% (inactive).

The same assay, now with this note: Clostridioides difficile clinical isolate growth, OD600, 24 h; at 120 µM (top of the series).
`C[C@@H]1CN([C@H](C)CO)S(=O)(=O)c2ccc(C#CC3CCCC3)cc2O[C@H]1CN(C)C`: the activity change, negative = inhibition is 4.79% (inactive).
Regarding `C[C@H]1CN([C@@H](C)CO)C(=O)c2cccc(NC(=O)Nc3ccccc3)c2O[C@H]1CN(C)Cc1ccc(Oc2ccccc2)cc1`, the activity change, negative = inhibition is 24.3% (inactive).
Consider `C[C@H](CO)N1C[C@H](C)[C@@H](CN(C)S(=O)(=O)c2ccc(Cl)cc2)Oc2c(NC(=O)Nc3ccc(C(F)(F)F)cc3)cccc2C1=O`, for which the activity change, negative = inhibition is 61.8% (inactive).
As for `O=C(C[C@H]1C[C@H]2c3cc(NC(=O)C4CCC4)ccc3O[C@H]2[C@H](CO)O1)NCc1ccc(Cl)cc1`, the activity change, negative = inhibition is 6.93% (inactive).
Same read-out and setting: as for `Cc1ccc(S(=O)(=O)N[C@H]2CC[C@H](CCNS(=O)(=O)Cc3ccccc3)O[C@H]2CO)cc1`, the figure is -4.09% (inactive); as for `C[C@@H]1CN([C@H](C)CO)S(=O)(=O)c2ccc(C3=CCCCC3)cc2O[C@H]1CN(C)Cc1cccnc1`, 19% (inactive).
On to `COc1ccc(S(=O)(=O)N(C)C[C@H]2Oc3c(NC(=O)Nc4ccc5c(c4)OCO5)cccc3C(=O)N([C@@H](C)CO)C[C@H]2C)cc1`, for which the activity change, negative = inhibition is 11.1% (inactive).
On to `CO[C@@H]1CN(C)C(=O)c2ccc(NC(=O)c3nc4ccccc4s3)cc2OC[C@@H](C)N(Cc2ccncc2)C[C@@H]1C`, for which the activity change, negative = inhibition is 14.1% (inactive).
Regarding `CO[C@H]1CN(C)C(=O)c2ccc(NC(=O)C3CCC3)cc2OC[C@H](C)N(Cc2ccncc2)C[C@@H]1C`, the activity change, negative = inhibition was -5.3% (inactive).
As for `C[C@H]1CN([C@@H](C)CO)C(=O)c2cccc(NC(=O)Nc3ccc(C(F)(F)F)cc3)c2O[C@@H]1CN(C)C(=O)NC1CCCCC1`, the activity change, negative = inhibition was 19.5% (inactive).
With `COc1ccc(NC(=O)Nc2cccc3c2O[C@@H](CN(C)Cc2ccc(Oc4ccccc4)cc2)[C@@H](C)CN([C@H](C)CO)C3=O)cc1`, the activity change, negative = inhibition is 38.3% (inactive).
Still for that read-out and setting: under `CNC[C@H]1OCCCC[C@H](C)Oc2ccc(NC(=O)Nc3cccc4ccccc34)cc2C(=O)N([C@H](C)CO)C[C@@H]1C` stands 11.4% (inactive).
Consider `C[C@@H]1CN([C@H](C)CO)C(=O)c2cc(NC(=O)Nc3cccc4ccccc34)ccc2O[C@@H](C)CCCCO[C@H]1CN(C)S(=O)(=O)c1ccccc1`, for which the activity change, negative = inhibition was 9.12% (inactive).
As for `C[C@@H]1CN([C@H](C)CO)S(=O)(=O)c2ccc(C#CC3CCCCC3)cc2O[C@@H]1CN(C)Cc1cccnc1`, the activity change, negative = inhibition was 20.4% (inactive).
Consider `C[C@@H]1CN([C@@H](C)CO)C(=O)Cc2cc(NC(=O)c3ccncc3)ccc2O[C@@H]1CN(C)Cc1ccc(-c2ccccc2)cc1`, for which the activity change, negative = inhibition is 19.7% (inactive).
On to `C[C@H](CO)N1C[C@H](C)[C@@H](CN(C)C(=O)Cc2cccnc2)Oc2cc(C#Cc3ccccc3F)ccc2S1(=O)=O`, for which the activity change, negative = inhibition was 40.8% (inactive).
On to `C/C=C/c1ccc2c(c1)O[C@H](CN(C)Cc1ccc(F)cc1)[C@H](C)CN([C@@H](C)CO)S2(=O)=O`, for which the activity change, negative = inhibition is 7.75% (inactive).
Same read-out and setting: as for `COc1ccc(CNC(=O)C[C@H]2C[C@@H]3c4cc(NC(=O)NC5CCCC5)ccc4O[C@@H]3[C@@H](CO)O2)cc1`, the figure is 6.58% (inactive); as for `C[C@@H]1CCCCO[C@@H](CN(C)S(=O)(=O)c2ccc(F)cc2)[C@H](C)CN([C@H](C)CO)C(=O)c2cc(NC(=O)Nc3cccc4ccccc34)ccc2O1`, 34.2% (inactive).
In the case of `CO[C@@H]1CN(C)C(=O)c2cc(NC(=O)c3nc4ccccc4s3)ccc2OC[C@@H](C)N(Cc2ccncc2)C[C@@H]1C`, the activity change, negative = inhibition is 14.6% (inactive).
With `C[C@@H]1CN([C@H](C)CO)C(=O)c2cccc(NC(=O)Nc3ccc(C(F)(F)F)cc3)c2O[C@H]1CN(C)Cc1ccncc1`, the activity change, negative = inhibition was 56.1% (inactive).
On to `CC(C)CC#Cc1ccc2c(c1)O[C@@H](CN(C)CC1CCOCC1)[C@H](C)CN([C@@H](C)CO)S2(=O)=O`, for which the activity change, negative = inhibition is 13.6% (inactive).

Still in this assay, the particulars now being: Clostridioides difficile clinical isolate growth, OD600, 24 h; at 135 µM (top of the series).
With `C[C@@H]1CN([C@H](C)CO)C(=O)Cc2cc(NS(C)(=O)=O)ccc2O[C@@H]1CN(C)Cc1ccc(-c2ccccc2)cc1`, the activity change, negative = inhibition was 20% (inactive).
As to `C[C@H]1CN([C@@H](C)CO)C(=O)Cc2cc(NC(=O)C3CC3)ccc2O[C@H]1CN(C)Cc1ccc(Oc2ccccc2)cc1`, the activity change, negative = inhibition is 26.6% (inactive).
In the case of `O=C(C[C@H]1C[C@@H]2c3cc(NC(=O)Nc4ccccc4)ccc3O[C@@H]2[C@H](CO)O1)NC1CCCC1`, the activity change, negative = inhibition was -0.545% (inactive).
For the compound `C[C@H]1CN([C@@H](C)CO)C(=O)c2cccc(NC(=O)Nc3ccc4c(c3)OCO4)c2O[C@H]1CN(C)Cc1ccc(-c2ccccc2)cc1`, the activity change, negative = inhibition was 24.8% (inactive).
Regarding `CO[C@@H]1CN(C)C(=O)c2cc(NC(=O)c3ccc(Oc4ccccc4)cc3)ccc2OC[C@H](C)NC[C@H]1C`, the activity change, negative = inhibition was 24.9% (inactive).
